In patent publication US20080200424A1, “Preparation for Treating Cancer” (priority 2004, published 2008):

Experiments:
[1] = tested on: head and neck tumour cell lines SCC9 and SCC25; test: Efficacy on tumour cells, cell line not given (cisplatin combinations, best concentration, proliferation); type: cell-based; conditions: combined with cisplatin (FIG. 2, FIG. 5); 7β-hydroxycholesterol in small doses
Excerpt: (§1) The biological activity of 7β-hydroxycholesterol and caroverin alone and also combined with each other was investigated. The efficacy was checked using the head and neck tumour cell lines SCC9 and SCC25.

healthy cells = conditions: does not attack healthy cells; cited from earlier work
SCC25 = test: Efficacy against head and neck tumour cell line SCC25; type: cell-based; conditions: substance alone, treatment period of 72 hours (FIG. 1)
Excerpt: as §1

SCC9 = test: Efficacy against head and neck tumour cell line SCC9; type: cell-based; conditions: substance alone, treatment period of 72 hours (FIG. 1)
Excerpt: as §1

SMILES | synergistic effect combined with cisplatin [1] | toxicity (healthy cells) | efficacy against cell line (SCC25) | efficacy against cell line (SCC9)
CCN(CC)CCn1c(=O)c(Cc2ccc(OC)cc2)nc2ccccc21 [caroverin, 1-diethylaminoethyl-3-(p-methoxybenzyl)-1,2-dihydro-quinoxalin-2-one, reference compound] | could not be proved | – | – | –
CC(C)CCC[C@@H](C)[C@H]1CC[C@H]2[C@@H]3[C@@H](O)C=C4C[C@@H](O)CC[C@]4(C)[C@H]3CC[C@]12C [7β-hydroxycholesterol] | synergistic effect | completely non-toxic | effective | effective
